Literature values in US20180100201A1, “TUMOR AND MICROENVIRONMENT GENE EXPRESSION, COMPOSITIONS OF MATTER AND METHODS OF USE THEREOF” (The Broad Institute Inc., priority 2015, published 2018).

Test system: Factor VII
Conditions: LNP siRNA systems containing these lipids

Row | Compound | gene silencing potency in hepatocytes in vivo, series
1 | 1,2-dilinoleyloxy-keto-N,N-dimethyl-3-aminopropane [DLinKDMA] | DLinKC2-DMA>DLinKDMA>DLinDMA>>DLinDAP
2 | CCCCC/C=C\C/C=C\CCCCCCCC(=O)OCC(CN(C)C)OC(=O)CCCCCCC/C=C\C/C=C\CCCCC (stereo not shown) [DLinDAP, 1,2-dilineoyl-3-dimethylammonium-propane] | DLinKC2-DMA>DLinKDMA>DLinDMA>>DLinDAP
3 | CCCCC/C=C\C/C=C\CCCCCCCCOCC(CN(C)C)OCCCCCCCC/C=C\C/C=C\CCCCC (stereo not shown) [DLinDMA, 1,2-dilinoleyloxy-3-N,N-dimethylaminopropane] | DLinKC2-DMA>DLinKDMA>DLinDMA>>DLinDAP
4 | CCCCC/C=C\C/C=C\CCCCCCCCC1(CCCCCCCC/C=C\C/C=C\CCCCC)OCC(CCN(C)C)O1 (stereo not shown) [DLinKC2-DMA, 1,2-dilinoleyl-4-(2-dimethylaminoethyl)-[1,3]-dioxolane] | DLinKC2-DMA>DLinKDMA>DLinDMA>>DLinDAP
